From ChEMBL document CHEMBL1144912, “Anticancer activity of phenolic acids of natural or synthetic origin: a structure-activity study” (2003)

Columns and labels:
L132 [1] = assay: Concentration for low cytotoxic activity against L-132 cell line; Range is 50-100 uM; type: functional, cell-based; conditions: Homo sapiens
MOLT-3 [2] = assay: Concentration for low cytotoxic activity against MOLT-3 cell line; Range is 50-100 uM; type: functional, cell-based; conditions: Homo sapiens
MDA-MB-231 [3] = assay: Concentration for low cytotoxic activity against MDA-MB-231 cell line; Range is 50-100 uM; type: functional, cell-based; conditions: Homo sapiens
HeLa [4] = assay: Concentration for low cytotoxic activity against HeLa cell line; Range is 50-100 uM; type: functional, cell-based; conditions: Homo sapiens
HeLa [5] = assay: Cytotoxic effect of compound measured as cell density of HeLa cells 72 hrs after incubation with compound compared to a initial density of […] cells/mL; type: functional, Homo sapiens
MOLT-3 [6] = assay: Percent reduction in cell viability of MOLT-3 cells 48 hr after incubation with the compound; type: functional, Homo sapiens
MDA-MB-231 [7] = assay: Percent reduction in cell viability of MDA-MB-231 cells 48 hr after incubation with compound; type: functional, Homo sapiens
HeLa [8] = assay: Percent reduction in cell viability of HeLa cells 72 hr after incubation with 100 uM of compound; type: functional, Homo sapiens
L132 [9] = assay: Percent reduction in cell viability of L-132 cells 72 hr after incubation with 100 uM of compound; type: functional, Homo sapiens
MDA-MB-231 [10] = assay: Percent reduction in cell viability of MDA-MB-231 cells 72 hr after incubation with compound; type: functional, Homo sapiens
MOLT-3 [11] = assay: Percent reduction in cell viability of MOLT-3 cells 72 hr after incubation with 100 uM of compound; type: functional, Homo sapiens
HeLa [12] = assay: Percent reduction in cell viability of HeLa cells 72 hr after incubation with compound; type: functional, Homo sapiens
MOLT-3 [13] = assay: Percent reduction in cell viability of MOLT-3 cells 72 hr after incubation with the compound; type: functional, Homo sapiens
MOLT-3 [14] = assay: Percent reduction in cell viability of MOLT-3 cells 72 hr after incubation with 50 uM of compound; type: functional, Homo sapiens

O=C(O)/C=C/c1ccc(O)c(OO)c1
Concentration (L132 [1]): 100 µM | Concentration (MOLT-3 [2]): 100 µM | Concentration (MDA-MB-231 [3]): 100 µM | Concentration (HeLa [4]): 100 µM

O=C(O)CCc1ccc(O)c(O)c1 [DIHYDROCAFFEIC ACID]
Cell density (HeLa [5]): 500000 cells ml-1

O=C(O)CCc1cc(O)c(O)c(O)c1
Reduction (MOLT-3 [6]): 45% | Reduction (MDA-MB-231 [7]): 55%

O=C(O)Cc1cc(O)c(O)c(O)c1
Reduction (HeLa [8]): 80% | Reduction (L132 [9]): 50% | Reduction (MDA-MB-231 [10]): 60% | Reduction (MOLT-3 [11]): 47%

O=C(O)c1cc(O)c(O)c(O)c1 [GALLIC ACID]
Reduction (HeLa [12]): 74% | Reduction (MOLT-3 [13]): 50% | Reduction (MDA-MB-231 [10]): 65%

O=C(O)Cc1ccc(O)c(O)c1 [3,4-DIHYDROXYPHENYLACETIC ACID]
Reduction (MOLT-3 [14]): 75%
